The values that follow come from patent US20100297020A1, “PHOSPHORYLATED AND PHOSPHONATED PYRONE ANALOGS FOR THERAPEUTIC TREATMENT” (Limerick Biopharma, Inc., priority 2008, published 2010).

Entries after “also recorded” stand apart in the source; their conditions may differ.

For data set [1] the following is noted: is known to be; cited from earlier work.
Data set [2] deals with ZDF rats. As to the kind of experiment: Oral glucose tolerance test (OGTT) in ZDF rats after the 4 week study. The conditions noted are these: glucose 2 g/Kg PO. It is filed as in vivo. On the procedure: Following the 4 week study described in Example 26 above, the animals were fasted for 12 hours and on day-29, pre-drug blood samples are collected and glucose level and insulin level are measured. The animals are treated intraperitoneally (i.p.) with the following compounds:
Thirty (30) minutes after the treatment, pre-glucose blood samples are collected and the animals are then dosed with glucose (2 g/Kg, PO). Tail vein blood samples are collected at 30, 60, 90 and 120 minutes. Glucose levela and insulin leveal are measured. FIG. 31 show the plasma glucose level measured during OGTT. […] FIG. 32 show the plasma insulin level measured during OGTT. Phosphonated pyrone analogs raise insulin output in response to OGTT.

A further data set deals with male ZDF rats. The data set can be described thus: 4 week study in ZDF rats (compound 2, compound 3). The class given is in vivo. The text has this:
Seven week old male ZDF rats are used for the study.
Experimental Design: This study is a 4 week study Using 32 7-week old male ZDF rats, divided into 4 treatment arms (8 rats/arm).

Data set [3] has as its system BB19 cells, human BCECs (brain capillary endothelial cells). As to the kind of experiment: Cyclosporin uptake assay. It is filed as cell-based. The conditions noted are these: 0.1 μM test compound; 1 hour incubation. How it is done:
(§1) BB19 cells, human BCECs (brain capillary endothelial cells) immortalized with the E6E7 genes of human papilloma virus, were kindly provided from Jacques G. Prudhomme, Department of Biology, University of California, Riverside, U.S.A. The cells were cultured as monolayer culture in Amniomax™-C100 basal medium (catalog number 17001-157) with Amniomax™-C100 supplement (catalog number 12556-049) (Invitrogen, Basel, CH).
(§2) Cells were seeded onto culture surfaces precoated with 10 μg/cm^2 rat tail collagen type I (BD Bioscience, Allschwil, CH) at a density of approximately 50′000 cells/cm^2 and were cultured in an incubator at 37° C. with 5% CO2, 95% fresh air and saturated humidity. For uptake assays, cells were seeded on precoated 96-well plates. Assays were performed at confluency, after 6 days in culture.
(§3) BB19 cells were seeded 50′000 cells/cm^2 on 96-well plates (Falcon) and incubated under condition described above for 6 days. Before starting the assay, cells were washed 2 times with pre-warmed Dulbecco's MEM with Glutamax-I (catalog number 61965) (Invitrogen AG, Basel, CH), supplemented with 1% non essential amino acids, 1% sodium pyruvate, 50 μg/ml gentamycin (Invitrogen AG) (DMEM). Cells were then incubated for 15 min at 37° C. and 120 rpm in DMEM with or without the specified concentrations of test compounds under investigation. After this pre-incubation, cells were incubated in DMEM containing [propyl-3H]-dihydro-FK506 (3H-tacrolimus, 1 μCi/ml, 34 nM) and with or without the specified concentrations of test compounds for 1 hour at 37° C. and 120 rpm. During this 1-hour incubation period, influx and efflux of the substrate, ^3H-tacrolimus, occur. After the 1-hour incubation period, assay was terminated by placing the assay plate on ice and washing the cells twice with ice-cold DMEM. Determination of cell associated ^3H-tacrolimus was performed by addition of Insta Gel and scintillation liquid to trypsinized cells followed by analysis on a scintillation counter (Packard TriCarb2000, Can berra Packard S.A.). The results are expressed as: % of control=100×[^3H-tacrolimus conc. with test compound]/[^3H-tacrolimus conc. with vehicle]
The cyclosporin uptake assay was performed similarly as described above for tacrolimus uptake assay except that ^3H-cyclosporin was used in place of ^3H-tacrolimus.

The next data set deals with male db/db mice. The data set can be described thus: 4-week study in db/db mice. It is filed as in vivo. The text has this: The animals are maintained (starting at 7-week old) on a 12-hr light and 12-hr dark cycle, and provided with commercial rodent chow, LabDiet® 5K52, and water ad libitum.
Data set [4] relates to diet-induced obese mice (C57Bl/6, 60% high fat diet). As to the kind of experiment: Diet induced obese mice: IP-GTT and hyperinsulinemic euglycemic clamp. The class given is in vivo. The conditions noted are these: 10 mg/kg I.P. daily. On the procedure:
Twenty-three (23) week old C57Bl/6 mice are placed on 60% high fat diet (HFD). After 9 weeks of HFD, mice are injected daily with either vehicle (PBS/NaCO3) or fisetin-3-O-methylphosphonate (compound 3) at a dosage of 10 mg/kg delivered via I.P. injection. HFD is continued throughout the injection period. After 2 weeks (week 10 and 11) of injection, mice are tested for basal blood (non-fasted) glucose levels by tail blood withdrawal. After 3 weeks (week 12) of injection, IP glucose tolerance test (IP-GTT) is performed at a dose of 1 gm dextrose per kilogram body weight. After 4 weeks (week 13) of injection, cannulation surgery is performed on anesthetized mice. Mice are allowed to recover 6 days. After 6 days, hyperinsulinemic euglycemic clamp studies are performed on the mice. After 7 weeks (week 16) of injections, a second IP-GTT is performed on the mice. Three days after the second IP-GTT, mice are sacrificed and blood and tissue samples are collected for further analysis.

In the next data set the test system is male C57BL/6 mice. As to the kind of experiment: Plasma and liver triglyceride in C57BL/6 mice. The class given is in vivo. How it is done:
Experimental Design: This study is a 2-week study conducted with male C57BL/6 mice (24 animals, 3 treatment arms, 8 rats/arm) 9-week old at the start of compound treatment. The animals are maintained (starting at 8-week old) on a 12-hr light and 12-hr dark cycle, and provided with commercial rodent chow Purina 5001 and water ad libitum.
The stock solution of vehicle (HCO-60) is composed of 200 mg of HCO-60 per mL of 80% alcohol. Vehicle is prepared by diluting the HCO-60 stock solution 1:10 with saline. Compound 3 stock solutions are prepared in HCO-60 stock solution and diluted with saline or vehicle to the appropriate dose concentration.
Tail-vein-blood samples are collected from each rat 24 hour after the last treatment (day-14) for plasma triglyceride determination. Animals are sacrificed to obtain liver for triglyceride determination.

Data set [5] deals with ZDF rats. As to the kind of experiment: Pancreas histopathology, insulin staining and TUNEL in ZDF rats. The following applies: following four weeks of daily treatment. The class given is in vivo. The text has this:
Pancreas samples from Example 26 are stored in 10% NBF and used in this study. All tissue samples were processed through graded alcohols, cleared in xylene and infiltrated and embedded into paraffin. For the pancreas four 4 micron sections were cut, one was stained with Hematoxylin and Eosin for histopathology, two were immunohistochemically stained with an antibody to insulin to determine beta cell mass and one was stained for apoptosis with the tunel technique.
The insulin staining procedure was performed as follows: Endogenous peroxidase activity was inhibited by incubation in 3% hydrogen peroxide. Non-specific staining was blocked with DAKO Protein Block Serum-Free (Dako, Carpinteria, Calif.). Insulin positive cells were immunohistochemically stained with a polyclonal guinea pig anti-swine insulin antibody at room temperature for 30 minutes (Dako, Carpinteria, Calif.). After incubation with primary antibody, the tissue sections were sequentially incubated with Envision+ HRP Rabbit (Dako, Carpinteria, Calif.). Staining was developed with Liquid DAB+ (Dako, Carpinteria, Calif.) and counterstained with hematoxylin.
Pancreas samples were stained for apoptosis as follows: 4 micron sections were cut and stained for TUNEL utilizing the following kit In Situ Cell Death Detection Kit, AP (Roche Applied Science, catalog 11 684 809 910).

For data set [6], the system named is BB19 cells, human BCECs (brain capillary endothelial cells). The data set can be described thus: Tacrolimus uptake assay. It is filed as cell-based. The conditions noted are these: Endothelial cell, 1 h, 0.1 μM test compound, 1 hour incubation, 3H-tacrolimus 34 nM, read-out: cell associated ^3H-tacrolimus uptake, % of control. On the procedure:
as §1, §2, §3

For `O=c1c(O)c(-c2ccc(O)c(O)c2)oc2cc(O)cc(O)c12` [quercetin aglycone, quercetin], the serum half-life in data set [1] was 19 to 25 h.

Turning to `O=c1c(OCP(=O)(O)O)c(-c2ccc(O)c(O)c2)oc2cc(O)ccc12` [Compound 3, Fisetin-3-O-methylphosphonic acid], in the data set with ZDF rats [2], the “plasma insulin level during OGTT” value is “raises insulin output”. Further, the “plasma glucose level during OGTT” value in the data set with ZDF rats [2] (compound 2 100 mg/kg, compound 3 50 mg/kg i.p.) is recorded as “protect against hyperglycemia”. Moreover, the plasma insulin levels entry in the data set on male ZDF rats (4 weeks daily i.p., compared to vehicle treated animals) is given as “require lower insulin levels to maintain nomal glucose levels”. Moreover, the plasma glucose levels result in the data set with male ZDF rats (4 weeks daily i.p., compound 2 100 mg/kg, compound 3 100 mg/kg day 4 and 5, 50 mg/kg day 6-28, rosiglitazone 6 mg/kg) is given as “maintains steady glucose levels”. Also, in the data set on male ZDF rats (compared to vehicle treated animals), the “glycated hemoglobin levels (% HbA1c) at termination” value is on record as “lower glycated hemoglobin levels”. Moreover, the triglycerides result with male ZDF rats (day 14 and day 21, over vehicle controls) was “marked decreases in triglycerides”. For the same compound, in [3], the “cell associated ^3H-cyclosporin uptake, % of control” value is listed as 71 % of control. Further, the body weights result with male db/db mice (4 weeks of daily treatment) is “essentially identical that of vehicle treated animals”. Further, in the data set on male db/db mice (compound 3 10 mg/kg daily i.p.), the “liver triglyceride at sacrifice (day-29)” value is on record as “significantly lower than vehicle treated mice”, the “plasma cholesterol levels on Day-28” value is reported as “significantly lower than vehicle or rosiglitazone treated mice” and the “plasma triglyceride levels on Day-28” value is reported as “significantly lower than vehicle or rosiglitazone treated mice”. In the data set on male db/db mice (daily i.p., compound 3 30 and 10 mg/kg, rosiglitazone 10 mg/kg), the “plasma glucose level on Day-28” value is “lower than vehicle treated control mice”. Also, in data set [4], the basal glucose result is “reduces basal glucose”, the hepatic glucose output entry was “impacts hepatic glucose output; also recorded: reduces hepatic glucose output”, the “insulin output in response to glucose challenge” value is reported as “less insulin output is required” and the “tissue glucose uptake during hyperinsulinemic euglycemic clamp” value is reported as “enhances tissue glucose uptake”. Moreover, in data set [4] (IP-GTT 1 gm dextrose per kilogram), the “response to IP glucose challenge” value was “improves response to glucose challenge”. In the data set with male C57BL/6 mice (30 mg/kg daily i.p. for 13 days, compared to vehicle), the liver triglyceride entry is given as “significantly reduces liver triglyceride”. The plasma triglyceride entry with male C57BL/6 mice (daily i.p. for 13 days, 30 and 3 mg/kg) is recorded as “reduces plasma triglyceride”. In addition, the islet cell apoptosis result in the data set with ZDF rats [5] (TUNEL) is “decreases in islet cell apoptosis”. In the data set with ZDF rats [5], the “decrease in islet vacuolar degeneration (inhibition)” value was 43% and the “decrease in pancreatic inflammation (inhibition)” value came to 35%. The activity at 0.1 µM in data set [6] is 44%.
